Experiments:
E. fecalis = assay: photodisinfection of E. fecalis biofilms in vitro (Periowave laser); assay type: cell-based, Enterococcus fecalis; conditions: methylene blue and a low power laser
Excerpt: (§1) Photodisinfection treatments using methods contemplated by the present invention have been tested against MRSA, Escherichia coli (E. coli), and Enterococcus fecalis (E. fecalis) in vitro and reached high levels of disinfection in within seconds to one minute. Photosensitizing composition comprising of methylene blue at various concentrations ranging from about 0.005 wt % to 0.1 wt % was applied to biofilms of MRSA, E. coli and E. fecalis for about ten seconds. These biofilms were then illuminated by a laser light system at a wavelength of about 665 nm to about 675 nm for a period from about 0 seconds to about 60 seconds (e.g., accumulated energy level of about 0 J/cm^2 to about 9 J/cm^2). The laser light system used was the Periowave™ system which includes a low-intensity laser with power at about 240 mW and the optical probe described in PCT Patent Publication No. WO2006115761.

MRSA [1] = assay: photodisinfection of MRSA biofilms in vitro (Periowave laser); assay type: cell-based, Methicillin-resistant Staphylococcus aureus
Excerpt: as §1

E. coli [2] = assay: photodisinfection of E. coli biofilms in vitro (Periowave laser); assay type: cell-based, Escherichia coli
Excerpt: as §1

MRSA [3] = assay: SEM evaluation of MRSA biofilms after photodisinfection; assay type: cell-based, Methicillin-resistant Staphylococcus aureus; conditions: about 0.1 wt % methylene blue, about 10 seconds contact, 665-675 nm, about 30 seconds
Description: Biofilms heavily colonized with one to four layers of MRSA organisms were contacted with a photosensitizing composition comprising methylene blue at a concentration of about 0.1 wt % for about 10 seconds and then illuminated at a wavelength of about 665 nm to about 675 nm for a period from about 30 seconds using the Periowave™ laser. Thereafter, these biofilms and the controlled MRSA biofilms (e.g., no photodisinfection treatment) were incubated overnight in 0.9 wt % saline and then fixed in 10 wt % Formalin for scanning electron microscope (SEM) evaluation.

otitis externa [4] = assay: study on patients suffering otitis externa (photodisinfection, Periowave laser); assay type: in vivo, human; conditions: about 0.01 wt % methylene blue by cotton swab, 665-675 nm, about 3 to 5 minutes (3-5 one minute cycles); many patients
Description: A study was conducted on patients suffering otitis externa. During the study, a photosensitizing composition comprising of methylene blue at a concentration of about 0.01 wt % was applied using a cotton swab to the treatment site as shown in FIG. 37. Thereafter and referring to FIGS. 38-39, light at a wavelength range from about 665 nm to about 675 nm was applied to the photosensitizing composition located within the treatment site 64 for a period from about 3 minutes to about 5 minutes (3-5 repetitive one minute cycles) using the Periowave™ laser light system.

E. coli [5] = assay: SEM evaluation of E. coli biofilms after photodisinfection; assay type: cell-based, Escherichia coli; conditions: about 0.1 wt % methylene blue, about 10 seconds contact, 665-675 nm, about 30 seconds
Description: Biofilms heavily colonized with one to three layers of Escherichia coli (E. coli) organisms were contacted with a photosensitizing composition comprising methylene blue at a concentration of about 0.1 wt % for about 10 seconds and then illuminated at a wavelength of about 665 nm to about 675 nm for a period from about 30 seconds using the Periowave™ laser. Thereafter, these biofilms and the controlled E. coli biofilms (e.g., no photodisinfection treatment) were incubated for three hours in 0.9% saline and then fixed in 10% Formalin for scanning electron microscope (SEM) evaluation.

otitis externa [6] = assay: photodisinfection of otitis externa treatment site (Examples V to VII); assay type: in vivo
Description: A photosensitizing composition comprising of methylene blue at a concentration of about 0.1 wt % is applied to the otitis externa treatment site. Light at a wavelength range from about 650 nm to about 680 nm is applied to the photosensitizing composition located within the otitis externa treatment site for a period from about 6 minutes to about 10 minutes using a laser with power at about 80 mW. The otitis externa was ameliorated.
A photosensitizing composition comprising of methylene blue at a concentration range of from about 0.001 wt % to about 0.1 wt % is applied to the otitis externa treatment site. Light at a wavelength range from about 650 nm to about 680 nm is applied to the photosensitizing composition located within the treatment site for a period from about 1 minute to about 20 minutes using a laser with power at a range from about 50 mW to about 300 mW. The otitis externa was ameliorated.
A photosensitizing composition comprising of toluidine blue at a concentration range of from about 0.001% wt % to about 0.1 wt % is applied to the otitis externa treatment site. Light at a wavelength range from about 620 nm to about 650 nm is applied to the photosensitizing composition located within the otitis externa treatment site for a period from about 1 minute to about 20 minutes using a laser with power at a range from about 50 mW to about 300 mW. The otitis externa was ameliorated.
For Examples V to VII, it was shown that there is a general inverse relationship between (1) the photosensitizer concentration and (2) the photodisinfection treatment time and/or the amount of power required for the light source. For example, higher concentration of photosensitizer requires less treatment time and/or lower light source power. Conversely, lower concentration of photosensitizer requires longer treatment time and/or higher light source power. Also, less treatment time requires higher concentration of photosensitizer and/or higher light source power.

[7] = at least 0.02 wt % methylene blue, about ten seconds contact, about 665-675 nm laser about 240 mW for at least 15 seconds (at least 2.25 J/cm^2)
[8] = methylene blue and a low power laser

## CN(C)c1ccc2nc3ccc(=[N+](C)C)cc-3sc2c1 [methylene blue]
E. fecalis
  elimination of E. Fecalis by photodisinfection: effectively eliminated
MRSA [1]; [7]
  reduction of MRSA: at least three
MRSA [1]; [8]
  elimination of MRSA by photodisinfection: effectively eliminated
E. coli [2]; [7]
  reduction of E. coli: at least three
E. coli [2]; [8]
  elimination of E. coli by photodisinfection: effectively eliminated
MRSA [3]
  reduction of MRSA in SEM photograph (FIG. 34 vs FIG. 33): substantial reduction of MRSA
Otitis externa [4]
  outcome of otitis externa: ameliorated
E. coli [5]
  reduction of E. coli in SEM photograph (FIG. 36 vs FIG. 35): substantial reduction of E. coli
Otitis externa [6]; Example V: about 0.1 wt %, 650-680 nm, about 6 to 10 minutes, laser about 80 mW
  outcome of otitis externa: ameliorated
Otitis externa [6]; Example VI: about 0.001 to 0.1 wt %, 650-680 nm, about 1 to 20 minutes, laser about 50 to 300 mW
  outcome of otitis externa: ameliorated

## Cc1cc2nc3ccc(N(C)C)cc3[s+]c2cc1N.[Cl-] [toluidine blue]
Otitis externa [6]; Example VII: about 0.001 to 0.1 wt %, 620-650 nm, about 1 to 20 minutes, laser about 50 to 300 mW
  outcome of otitis externa: ameliorated

From patent publication US20070255356A1, “PHOTODI[…] DEVICES AND METHODS” (Ondine International, Ltd., priority 2006, published 2007)
